≈ marks a conversion by molar mass, not a printed value.
Assays:
[1] = system: methicillin-resistant S. aureus (MRSA, ATCC 33591); assay: Minimum inhibitory concentration (MIC) assay, MRSA; assay type: cell-based, Staphylococcus aureus
Procedure: (§1) Minimum inhibitory concentrations (MICs) assay.^2
(§2) All compounds were tested against six different bacteria strains: methicillin-resistant S. aureus (MRSA, ATCC 33591), E. coli (ATCC 25922), methicillin-resistant S. epidermidis (MRSE, RP62A), K. pneumoniae (ATCC 13383), vancomycin-resistant Enterococcus faecalis (VREF, ATCC 700802), P. aeruginosa (ATCC 27853). One colony of each bacteria was inoculated in 4 mL TSB buffer at 37° C. overnight, which was then diluted 100 times, and the bacteria were allowed to grow to the mid-logarithmic phase. 50 μL hydantoin compounds in 2-fold serial dilution of TSB were added in the 96-well plate, then 50 μL diluted bacterial in TSB medium (1×10^6 CFU/mL) was added to each well. After 16 h of incubation at 37° C., the absorption at 600 nm wavelength on a Biotek Synergy HT microtiter plate reader was recorded. Minimum inhibitory concentrations were determined as the lowest concentrations that inhibited bacteria growth completely.

[2] = system: methicillin-resistant S. epidermidis (MRSE, RP62A); assay: Minimum inhibitory concentration (MIC) assay, MRSE; assay type: cell-based, Staphylococcus epidermidis; settings: Staphylococcus epidermidis, MRSE, Gram positive, 16 h incubation, read-out: MIC (μg/mL) MRSE
Procedure: as §1, §2

[3] = system: vancomycin-resistant Enterococcus faecalis (VREF, ATCC 700802); assay: Minimum inhibitory concentration (MIC) assay, VREF; assay type: cell-based; settings: Enterococcus faecalis, ATCC700802, Gram positive, 16 h incubation, read-out: MIC (μg/mL) VREF
Procedure: as §1, §2

[4] = system: K. pneumoniae (ATCC 13383); assay: Minimum inhibitory concentration (MIC) assay, K. pneumoniae; assay type: cell-based, Klebsiella pneumoniae; settings: Klebsiella pneumoniae, ATCC13383, Gram negative, 16 h incubation, read-out: MIC (μg/mL) K.P.
Procedure: as §1, §2

[5] = system: red blood cells (RBCs) of mice; assay: Hemolytic assay; assay type: cell-based; settings: hemolytic activity; mouse RBCs, 1 h at 37° C.
Procedure: Fresh red blood cells (RBCs) of mice were washed with 1×PBS buffer and centrifuged 10 min at 3500 rpm for 3 times until the supernatant was clear, then RBCs were diluted into 5% v/v suspension in 1×PBS. 50 μL compounds in PBS were 2-fold serially diluted in a 96-well plate, and incubated with 50 μL RBCs suspension for 1 h at 37° C. The mixture was then centrifuged for 10 min at 3500 rpm. Subsequently, 30 μL of the supernatant was added to 100 μL PBS, then the absorbance of mixture was read on a Biotek Synergy HT plate reader at 540 nm. The hemolytic activity was calculated by the formula % hemolysis=(Abssample−AbsPBS)/(AbsTriton−AbsPBS)×100%. 1% Triton X-100 were used as the positive control and 1×PBS buffer was used as the negative control.

[6] = system: ovarian cancer cells (C13); assay: Selectivity for mammalian cells, C13; assay type: cell-based; settings: Homo sapiens, read-out: IC50 toward ovarian cancer cells (C13)
[7] = system: colon cancer cells (HCT116); assay: Selectivity for mammalian cells, HCT116; assay type: cell-based; settings: Homo sapiens, HCT-116; read-out: IC50 toward colon cancer cells (HCT116)
[8] = system: MRSA; assay: Fluorescence microscopy (DAPI/PI) membrane damage, MRSA; assay type: cell-based, Staphylococcus aureus; settings: 5 μg/mL, 2 h
[9] = system: E. coli; assay: Fluorescence microscopy (DAPI/PI) membrane damage, E. coli; assay type: cell-based, Escherichia coli; settings: 5 μg/mL, 2 h
Procedure: Fluorescence microscopy.^2
Both propidium iodide (PI) and 4′, 6′-diamidino-2-phenylindole dihydrochloride (DAPI) fluorescent dyes were used in the studies to determine the ability of the compound 22 to compromise the membranes of MRSA and E. coli, respectively. […] After centrifugation for 15 min at 5000 rpm, cell pellets were washed with 1×PBS buffer, and incubated with PI (5 μg/mL) for 15 min on ice in the dark, then washed 2 times with PBS. Then the cell pellets were incubated with DAPI (10 μg/mL) in the similar way. The pellets were then diluted in 100 μL PBS, and 10-20 μL of the suspension was applied on chamber slides and observed under Zeiss Axio Image Zloptical microscope using 100× oil-immersion objective.

[10] = system: MRSA; assay: Time kill assay, MRSA; assay type: cell-based, Staphylococcus aureus
Procedure: Bacteria MRSA (Gram-positive) and E. coli (Gram-negative) suspensions were allowed to grow at 37° C. to the mid-logarithmic phase, and diluted to 1×10^6 CFU/mL, then incubated with the compound 22 at the concentration of 50, 25, 12.5 μg/mL at 10 min, 30 min, 1 h and 2 h, respectively. The resulted mixture was then diluted by 10^2 to 10^4 fold, from which 100 μL was spread on the TSB agar plate. The Number of bacteria colonies was counted after 20 h of incubation at 37° C.

[11] = system: MRSA; assay: Drug resistance assay; assay type: cell-based, Staphylococcus aureus
Procedure: The lead compound 22 was chosen for drug resistance studies. Briefly, after its MIC against MRSA was determined, the bacteria solution from the well of the ½ MIC was withdrawn and diluted to 1×10^6 CFU/mL for the next MIC measurement. The measurement was repeated for 14 passages.

[12] = system: MRSA-induced lung inflammation; assay: Rat model of MRSA-induced pneumonia, pathological analysis (H&E); assay type: in vivo; settings: 10 mg/kg i.v.
Procedure: The rat model of MRSA-induced pneumonia.^4, 5
The protocol of animal studies was approved by the institutional committee for animal care of Nanjing University, and the experiments were conducted following the regulation of the National Ministry of Health of China. In Brief, male Wistar rats (6-8 weeks, ˜200 g in average weight) were subjected to fast for 12 h. Next, rats were anesthetized by intraperitoneal administration of 0.35 g/kg of chloral hydrate. To induce MRSA pneumonia, the trachea of rats were exposed, to which 100 μL PBS containing 2×10^6 CFU/mL MRSA in PBS was slowly injected. The rats were retained upright for 1 min, and the cut was sealed. The MRSA infection was allowed to develop for 24 h.
The hydantoin compound 22 or vancomycin were used as antibiotics in the study. In brief, a dose of 10 mg/kg of the drug was injected to the tested rats intravenously. On the day of 3 and 5, rats were sacrificed, and lung sections were stained with hematoxylin and eosin (H&E), and their morphology was investigated under a light microscope at 100× magnification. The existence (indicated by the infiltration of neutrophils) and the extent of possible inflammatory response (indicated by the integrity of the alveolar structure and endothelium cilium) were recorded from at least five randomly picked sections by an experienced physician.

CCCCCCCCCCCC(=O)N[C@@H](CCCCN)CN1CC(=O)N(c2cccc(Cl)c2)C1=O [Compound 22, (S)—N-(6-amino-1-(3-(3-chlorophenyl)-2,4-dioxoimidazolidin-1-yl)hexan-2-yl)dodecanamide]
MIC ([1]; Staphylococcus aureus, Gram positive, ATCC 33591, 16 h incubation, read-out: MIC (μg/mL) MRSA): 0.5 µg/mL | effectiveness toward MRSA compared with nitrofurantoin ([1]; ratio of MICs): 25 fold | MIC [2]: 0.5 µg/mL | MIC [3]: 0.5 µg/mL | MIC [4]: 0.78 µg/mL | HC50 [5]: 95 µg/mL | IC50 [6]: 90 µg/mL (≈ 177 µM) | IC50 [7]: 100 µg/mL (≈ 197 µM) | membrane damage of MRSA (DAPI/PI staining) [8]: membranes of both MRSA and E. coli were damaged | membrane damage of E. coli (DAPI/PI staining) [9]: membranes of both MRSA and E. coli were damaged | time to completely eradicate MRSA ([10]; 2.0 μg/mL (4×MIC)): 60 min | time to completely eradicate MRSA ([10]; 25 μg/mL): 10 min | MIC against MRSA after 14 passages at half MIC [11]: virtually remain unchanged | lung inflammation (H&E staining), day 3 ([12]; day 3): only mild inflammation | lung inflammation (H&E staining), day 5 ([12]; day 5): virtually the normal condition
